Molecules are shown by their SMILES.

Assay [1] concerns NIH3T3 line transfected with the Per2-Luc reporter. Kind of assay: Period of the circadian rhythm in NIH3T3 fibroblasts with Per2-Luc reporter (luminescence, cosinor analysis). It counts as cell-based, mouse. As to conditions: NIH3T3, DMSO control = 1.00. The procedure:
NIH3T3 mouse embryonic fibroblasts were grown in standard DMEM with 10% fetal bovine serum. NIH3T3 cells were transfected with 1 μg of Per2-Luc reporter using GeneJuice and selected under hygromycin. The cell line was clonally expanded and a single monoclonal cell line was used for further experiments. Cells were cultured in a 96-well plate in growth medium to 90+% confluence. Test compound or vehicle (DMSO) was applied to recording medium with 100 U/ml penicillin, 100 μg/ml streptomycin, 1x GlutaMAX, 10% fetal calf serum and 0.1 mM Luciferin-EF (Promega Madison, WI, USA). Luminescence was recorded every hour for the next 144 hours. Circadian rhythm analysis was performed using cosinor analysis. Period length was expressed relative to the period of cells affected only by DMSO vehicle (their period length is therefore 1.00).

For assay [2], the system named is U2OS line transduced with the Bmal 1-Luc reporter. Kind of assay: Period of the circadian rhythm in U2OS cells with Bmal1-Luc reporter (luminescence, cosinor analysis). It counts as cell-based, Human. As to conditions: U2OS, DMSO control = 1.00. The procedure:
Human osteosarcoma U2OS cells were grown in standard DMEM medium with 10% fetal bovine serum. U2OS cells were transduced with lentiviral particles containing a Bmall-Luc fusion reporter and selected under Blasticidin. The cell line was clonally expanded and a single monoclonal cell line was used for further experiments. Cells were cultured in a 384-well plate in growth medium to 90+% confluence. Test compound or vehicle (DMSO) was applied to recording medium with 100 U/ml penicillin, 100 ug/ml streptomycin, 1x GlutaMAX, 10% fetal bovine serum, and 0.1 mM Luciferin-EF. Luminescence was recorded every hour for the next 144 hours. Circadian rhythm analysis was performed using cosinor analysis.
The length of the period was expressed relative to the period of cells affected only by DMSO vehicle (their period is therefore 1.00). […] The overall effect on circadian oscillations unequivocally proves that the compounds of formula I can be also used to temporally modulate the concentration and activity of not only BMAL1, but also other components of the oscillator including the critical components PER2, CRY and CLOCK in time, as these are an essential part of the mechanism generating the rhythmic expression of the luminescent reporter used. The concentration and level of other proteins, whose rhythmic expression is controlled by an oscillator in the brain and peripheral tissues (so-called clock-controlled genes), are also necessarily affected. The influence of the compounds of formula I on the activity of oscillator components and subordinate genes also means influencing the physiological processes of the cell controlled by these genes and proteins. N^6-furfuryladenine was used as a reference compound. […] The ability to shift the phase of the circadian cycle can be seen in FIG. 2.

For the molecule `COCCCCn1cnc2c(NCc3ccco3)ncnc21` [N-(furan-2-ylmethyl)-9-(4-methoxybutyl)-9H-purin-6-amine, reference compound], the “Period length ± standard error of the mean (expressed relative to the control) at the indicated concentration” value in assay [1] (50 μM) was 50 μM: 0.97 ± 0.03. For the same molecule, in assay [2] (50 μM), the “Period length ± standard error of the mean (expressed relative to control) at the indicated concentration” value is on record as 50 μM: 1 ± 0.01.
Regarding `c1coc(CNc2ncnc3c2ncn3C2CCCC2)c1` [Compound 1], the “Period length ± standard error of the mean (expressed relative to the control) at the indicated concentration” value in assay [1] (10 μM) came to 1.17 ± 0.01; in assay [1] (50 μM) it was 1.54 ± 0.01. In addition, the “Period length ± standard error of the mean (expressed relative to control) at the indicated concentration” value in assay [2] (10 μM) was 10 μM: 1.19 ± 0.02.
For `NCCNc1nc(NCc2ccco2)c2ncn(C3CCCC3)c2n1` [Compound 18], the figures for the “Period length ± standard error of the mean (expressed relative to the control) at the indicated concentration” value in assay [1] (10 μM) and in assay [1] (50 μM) were 1.19 ± 0 and 2.19 ± 0.35, respectively. For the same molecule, the “Period length ± standard error of the mean (expressed relative to control) at the indicated concentration” value in assay [2] (1 μM) is 1 μM: 1.16 ± 0.03.
Regarding `CNc1nc(NCc2ccco2)c2ncn(C3CCCO3)c2n1` (stereo not drawn) [Compound 22], the “Period length ± standard error of the mean (expressed relative to the control) at the indicated concentration” value in assay [1] (50 μM) is listed as 50 μM: 1.22 ± 0.02. For the same molecule, in assay [2] (10 μM), the “Period length ± standard error of the mean (expressed relative to control) at the indicated concentration” value is recorded as 10 μM: 1.06 ± 0.
Turning to `Cc1ccc(CNc2nc(N(C)C)nc3c2ncn3C2CCCO2)o1` (stereo not drawn) [Compound 24], the “Period length ± standard error of the mean (expressed relative to the control) at the indicated concentration” value in assay [1] (50 μM) is listed as 50 μM: 1.24 ± 0.07. Moreover, the entries for the “Period length ± standard error of the mean (expressed relative to control) at the indicated concentration” value in assay [2] (10 μM) and in assay [2] (20 μM) were 1.03 ± 0 and 1.09 ± 0.01, respectively.
Turning to `CN(CCN)c1nc(NCc2ccco2)c2ncn(C3CCCC3)c2n1` [Compound 16], the figures for the “Period length ± standard error of the mean (expressed relative to the control) at the indicated concentration” value in assay [1] (0.83 μM) and in assay [1] (10 μM) were 1.05 ± 0.01 and 2.02 ± 0.06, respectively. Moreover, the results for the “Period length ± standard error of the mean (expressed relative to control) at the indicated concentration” value in assay [2] (10 μM) and in assay [2] (20 μM) were 1.26 ± 0.07 and 1.95 ± 0.14, respectively.
Consider `c1coc(CNc2nc(NCc3ccco3)c3ncn(C4CCCCO4)c3n2)c1` (stereo not drawn) [Compound 38], for which, in assay [1] (50 μM), the “Period length ± standard error of the mean (expressed relative to the control) at the indicated concentration” value is reported as 50 μM: 1.22 ± 0.06. The “Period length ± standard error of the mean (expressed relative to control) at the indicated concentration” value in assay [2] (10 μM) is listed as 10 μM: 1.1 ± 0.02.
In the case of `COCCCNc1nc(NCc2ccco2)c2ncn(C3CCCCO3)c2n1` (stereo not drawn) [Compound 46], the “Period length ± standard error of the mean (expressed relative to the control) at the indicated concentration” value in assay [1] (50 μM) was 50 μM: 1.27 ± 0.04. In addition, in assay [2] (20 μM), the “Period length ± standard error of the mean (expressed relative to control) at the indicated concentration” value is 20 μM: 1.05 ± 0.01.
Take `COCn1cnc2c(NCc3ccco3)ncnc21` [N-(furan-2-ylmethyl)-9-(methoxymethyl)-9H-purin-6-amine, reference compound]: in assay [1] (50 μM), the “Period length ± standard error of the mean (expressed relative to the control) at the indicated concentration” value is 50 μM: 0.96 ± 0.02. For the same molecule, the “Period length ± standard error of the mean (expressed relative to control) at the indicated concentration” value in assay [2] (50 μM) is on record as 50 μM: 1.01 ± 0.01.
Regarding `CN(C)c1nc(NCc2ccco2)c2ncn(C3CCCC3)c2n1` [Compound 15, 9-cyclopentyl-N^6-(furan-2-ylmethyl)-N^2,N^2-dimethyl-9H-purine-2,6-diamine], the figures for the “Period length ± standard error of the mean (expressed relative to the control) at the indicated concentration” value in assay [1] (0.83 μM) and in assay [1] (50 μM) were 1.08 ± 0.05 and 1.56 ± 0.07, respectively. The “Period length ± standard error of the mean (expressed relative to control) at the indicated concentration” value stood at 1.05 ± 0.01 in assay [2] (1 μM) and 1.15 ± 0.01 in assay [2] (4 μM).
For `CN(C)CCNc1nc(NCc2ccco2)c2ncn(C3CCCC3)c2n1` [Compound 17], the “Period length ± standard error of the mean (expressed relative to the control) at the indicated concentration” value in assay [1] (10 μM) came out at 1.71 ± 0.04; in assay [1] (50 μM), 2.17 ± 0.1. Further, the “Period length ± standard error of the mean (expressed relative to control) at the indicated concentration” value in assay [2] (10 μM) was 10 μM: 1.48 ± 0.28.
On to `CC(C)(C)OCCn1cnc2c(NCc3ccco3)ncnc21` [9-[2-(tert-butoxy)ethyl]-N-(furan-2-ylmethyl)-9H-purin-6-amine, reference compound], for which, in assay [1] (50 μM), the “Period length ± standard error of the mean (expressed relative to the control) at the indicated concentration” value is 50 μM: 0.9 ± 0.06. Besides, the “Period length ± standard error of the mean (expressed relative to control) at the indicated concentration” value in assay [2] (50 μM) is 50 μM: 1 ± 0.01.
For the molecule `Clc1nc(NCc2ccco2)c2ncn(C3CCCC3)c2n1` [Compound 6], the “Period length ± standard error of the mean (expressed relative to the control) at the indicated concentration” value in assay [1] (10 μM) is given as 10 μM: 1.27 ± 0.01. Further, in assay [2] (5 μM), the “Period length ± standard error of the mean (expressed relative to control) at the indicated concentration” value was 5 μM: 1.23 ± 0.03.
Turning to `c1ccc(Cn2cnc3c(NCc4ccco4)ncnc32)cc1` [9-benzyl-N-(furan-2-ylmethyl)-9H-purin-6-amine, reference compound], the “Period length ± standard error of the mean (expressed relative to the control) at the indicated concentration” value in assay [1] (10 μM) is listed as 10 μM: 1 ± 0.02. The “Period length ± standard error of the mean (expressed relative to control) at the indicated concentration” value in assay [2] (10 μM) was 10 μM: 1 ± 0.02.
Regarding `CN(C)c1nc(NCc2ccco2)c2ncn(C3CCCCO3)c2n1` (stereo not drawn) [Compound 34], in assay [1] (50 μM), the “Period length ± standard error of the mean (expressed relative to the control) at the indicated concentration” value is reported as 50 μM: 2.3 ± 0.03. In addition, the “Period length ± standard error of the mean (expressed relative to control) at the indicated concentration” value in assay [2] (10 μM) was 1.12 ± 0.01; in assay [2] (20 μM), 1.25 ± 0.03; in assay [2] (50 μM), 50 μM: 1.73 ± 0.6.
As for `COCCCn1cnc2c(NCc3ccco3)ncnc21` [N-(furan-2-ylmethyl)-9-(3-methoxypropyl)-9H-purin-6-amine, reference compound], the “Period length ± standard error of the mean (expressed relative to the control) at the indicated concentration” value in assay [1] (50 μM) was 50 μM: 0.93 ± 0. Besides, the “Period length ± standard error of the mean (expressed relative to control) at the indicated concentration” value in assay [2] (50 μM) was 50 μM: 0.99 ± 0.01.

Source of the values: patent publication US20250346601A1, “HETEROCYCLIC COMPOUNDS FOR THE PREVENTION AND THERAPY OF CIRCADIAN RHYTHM DISORDERS” (UNIVERZITA PALACKEHO V OLOMOUCI, priority 2022, published 2025).
